We go through 1 molecule from patent US7629341B2, “Human ADAM-10 inhibitors” (Symphony Evolution, Inc., priority 2003, dated 2009).

Where only a bound is given, the exact number is not on record here.

Assay [1] addresses T1, ADAM-10 (UniProt O14672).
T1 sequence (O14672 1-748): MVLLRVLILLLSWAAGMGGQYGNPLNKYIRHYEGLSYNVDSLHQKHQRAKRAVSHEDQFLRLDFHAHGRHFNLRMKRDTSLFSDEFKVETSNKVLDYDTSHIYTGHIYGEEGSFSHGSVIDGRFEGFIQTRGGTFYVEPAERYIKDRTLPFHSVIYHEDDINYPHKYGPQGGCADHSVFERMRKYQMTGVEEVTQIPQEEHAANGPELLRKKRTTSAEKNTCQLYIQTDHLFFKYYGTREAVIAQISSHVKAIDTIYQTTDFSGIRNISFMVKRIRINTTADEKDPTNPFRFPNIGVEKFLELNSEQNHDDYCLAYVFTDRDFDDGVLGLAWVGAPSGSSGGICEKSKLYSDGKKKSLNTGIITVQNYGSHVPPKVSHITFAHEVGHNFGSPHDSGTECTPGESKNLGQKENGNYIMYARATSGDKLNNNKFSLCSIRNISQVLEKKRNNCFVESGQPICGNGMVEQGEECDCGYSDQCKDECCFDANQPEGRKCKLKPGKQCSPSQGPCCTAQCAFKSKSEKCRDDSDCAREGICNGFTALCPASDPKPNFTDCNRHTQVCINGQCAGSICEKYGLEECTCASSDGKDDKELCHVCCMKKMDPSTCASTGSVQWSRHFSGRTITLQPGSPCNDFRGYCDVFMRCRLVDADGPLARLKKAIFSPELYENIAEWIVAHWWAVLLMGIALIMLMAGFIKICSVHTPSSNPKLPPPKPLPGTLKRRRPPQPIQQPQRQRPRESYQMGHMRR
The assay can be described thus: ADAM-10 enzyme assay, cleavage of a fluorogenic 10-residue peptide.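 Note: mouse or human ADAM-10 at 5 nM active enzyme, pH 8.0 HEPES buffer with CaCl2 and NP-40, compounds titrated 100 µM down to 0.5 nM, fluorescence read after 16 h at room temperature.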 Particulars: in vitro. Format: biochemical, mouse or human (mADAM-10 or hADAM-10).

Assay [2] concerns the target TACE (TNF-alpha converting enzyme, ADAM-17) (Homo sapiens, UniProt P78536). The assay is described as follows: In vitro metalloprotease inhibition, TACE. Format: biochemical. From the text:
(§1) Blank cells indicate lack of data only.

Assay [3] deals with T2, MMP-1 (Fibroblast collagenase) (Homo sapiens, UniProt P03956).
T2 sequence (P03956 100-469): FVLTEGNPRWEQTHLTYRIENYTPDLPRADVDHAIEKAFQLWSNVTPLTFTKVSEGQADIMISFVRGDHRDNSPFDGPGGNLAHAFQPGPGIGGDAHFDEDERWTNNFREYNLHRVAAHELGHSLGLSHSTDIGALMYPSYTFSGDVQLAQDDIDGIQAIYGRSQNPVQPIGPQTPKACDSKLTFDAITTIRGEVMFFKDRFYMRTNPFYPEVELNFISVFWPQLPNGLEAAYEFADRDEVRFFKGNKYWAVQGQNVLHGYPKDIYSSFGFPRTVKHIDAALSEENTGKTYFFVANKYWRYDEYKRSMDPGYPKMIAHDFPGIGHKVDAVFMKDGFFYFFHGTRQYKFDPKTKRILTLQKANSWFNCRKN
The assay can be described thus: In vitro metalloprotease inhibition, MMP-1. The assay is classed as biochemical.
From the text: as §1

The target in assay [4] is T3, MMP-2 (72 kDa gelatinase, gelatinase A) (Homo sapiens, UniProt P08253).
T3 sequence (P08253 110-660): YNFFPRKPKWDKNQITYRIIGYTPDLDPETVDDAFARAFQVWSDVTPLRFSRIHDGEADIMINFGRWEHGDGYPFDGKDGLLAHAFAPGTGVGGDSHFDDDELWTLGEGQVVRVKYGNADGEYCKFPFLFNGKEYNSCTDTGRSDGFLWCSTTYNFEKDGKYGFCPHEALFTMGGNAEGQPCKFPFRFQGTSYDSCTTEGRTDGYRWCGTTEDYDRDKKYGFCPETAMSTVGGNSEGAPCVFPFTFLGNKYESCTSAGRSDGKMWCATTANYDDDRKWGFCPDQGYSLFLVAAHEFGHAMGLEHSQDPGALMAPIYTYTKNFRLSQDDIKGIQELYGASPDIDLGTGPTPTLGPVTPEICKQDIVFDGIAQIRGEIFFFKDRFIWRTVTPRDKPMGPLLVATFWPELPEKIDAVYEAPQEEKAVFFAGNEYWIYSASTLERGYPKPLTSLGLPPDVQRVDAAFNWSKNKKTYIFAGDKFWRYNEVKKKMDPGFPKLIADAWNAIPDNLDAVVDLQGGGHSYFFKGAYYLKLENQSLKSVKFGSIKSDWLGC
The assay is described as follows: In vitro metalloprotease inhibition, MMP-2. Format: biochemical.

In assay [5] the target is MMP-3 (Stromelysin-1) (Homo sapiens, UniProt P08254). The assay is described as follows: In vitro metalloprotease inhibition, MMP-3. The assay is classed as biochemical.
From the text: as §1

Assay [6] has as its target MMP-8 (Neutrophil collagenase) (Homo sapiens, UniProt P22894). The assay is described as follows: In vitro metalloprotease inhibition, MMP-8. The assay is classed as biochemical.
Assay [7] deals with MMP-9 (92 kDa gelatinase, gelatinase B) (Homo sapiens, UniProt P14780). The assay can be described thus: In vitro metalloprotease inhibition, MMP-9. Format: biochemical.
The target of assay [8] is MMP-13 (collagenase-3) (Homo sapiens, UniProt P45452). The assay can be described thus: In vitro metalloprotease inhibition, MMP-13. The assay is classed as biochemical.

Chain of MMP-3 (Stromelysin-1) (P08254 100-477, species assumed): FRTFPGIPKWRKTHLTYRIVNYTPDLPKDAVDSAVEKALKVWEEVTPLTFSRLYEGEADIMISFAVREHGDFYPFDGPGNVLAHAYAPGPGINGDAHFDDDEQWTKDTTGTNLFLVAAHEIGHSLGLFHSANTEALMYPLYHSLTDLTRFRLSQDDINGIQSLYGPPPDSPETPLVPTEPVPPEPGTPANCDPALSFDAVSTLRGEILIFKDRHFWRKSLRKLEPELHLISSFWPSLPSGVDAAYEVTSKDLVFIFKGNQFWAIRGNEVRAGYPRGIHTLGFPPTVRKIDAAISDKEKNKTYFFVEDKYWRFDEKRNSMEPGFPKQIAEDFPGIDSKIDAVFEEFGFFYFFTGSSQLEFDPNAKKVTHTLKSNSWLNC
Chain of TACE (TNF-alpha converting enzyme, ADAM-17) (P78536 215-824): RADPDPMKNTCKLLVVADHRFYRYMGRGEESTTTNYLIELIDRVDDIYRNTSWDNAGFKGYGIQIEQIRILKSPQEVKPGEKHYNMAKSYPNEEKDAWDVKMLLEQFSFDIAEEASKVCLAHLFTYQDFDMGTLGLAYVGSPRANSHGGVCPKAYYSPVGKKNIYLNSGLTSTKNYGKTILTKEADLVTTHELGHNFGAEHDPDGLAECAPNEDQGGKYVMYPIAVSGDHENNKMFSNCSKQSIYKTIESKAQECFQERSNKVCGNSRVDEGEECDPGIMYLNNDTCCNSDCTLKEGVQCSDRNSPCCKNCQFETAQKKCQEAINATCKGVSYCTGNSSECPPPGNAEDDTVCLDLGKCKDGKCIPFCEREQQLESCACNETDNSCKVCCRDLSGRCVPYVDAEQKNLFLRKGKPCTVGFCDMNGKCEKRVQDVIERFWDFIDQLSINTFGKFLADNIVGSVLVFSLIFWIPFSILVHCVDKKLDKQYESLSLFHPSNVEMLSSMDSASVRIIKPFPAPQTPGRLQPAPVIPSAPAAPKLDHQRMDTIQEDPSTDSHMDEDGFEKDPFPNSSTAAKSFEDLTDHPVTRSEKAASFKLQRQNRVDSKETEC
Chain of MMP-9 (92 kDa gelatinase, gelatinase B) (P14780 94-707, species assumed): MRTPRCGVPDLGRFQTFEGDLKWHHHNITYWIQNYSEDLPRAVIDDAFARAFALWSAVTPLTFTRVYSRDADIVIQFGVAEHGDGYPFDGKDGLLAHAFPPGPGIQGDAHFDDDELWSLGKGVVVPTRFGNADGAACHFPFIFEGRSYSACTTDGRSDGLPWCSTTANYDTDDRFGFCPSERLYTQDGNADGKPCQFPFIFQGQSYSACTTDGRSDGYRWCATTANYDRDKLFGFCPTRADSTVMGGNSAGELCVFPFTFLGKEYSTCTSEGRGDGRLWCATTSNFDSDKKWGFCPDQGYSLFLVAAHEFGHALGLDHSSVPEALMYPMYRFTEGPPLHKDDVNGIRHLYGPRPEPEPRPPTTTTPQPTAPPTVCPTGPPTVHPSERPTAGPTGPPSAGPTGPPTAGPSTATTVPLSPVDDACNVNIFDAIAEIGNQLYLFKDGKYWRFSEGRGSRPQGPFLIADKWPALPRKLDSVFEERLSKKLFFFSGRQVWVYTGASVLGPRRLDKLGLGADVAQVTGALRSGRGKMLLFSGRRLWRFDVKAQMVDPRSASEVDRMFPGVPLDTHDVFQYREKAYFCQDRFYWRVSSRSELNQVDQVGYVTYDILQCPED
Chain of MMP-8 (Neutrophil collagenase) (P22894 101-467, species assumed): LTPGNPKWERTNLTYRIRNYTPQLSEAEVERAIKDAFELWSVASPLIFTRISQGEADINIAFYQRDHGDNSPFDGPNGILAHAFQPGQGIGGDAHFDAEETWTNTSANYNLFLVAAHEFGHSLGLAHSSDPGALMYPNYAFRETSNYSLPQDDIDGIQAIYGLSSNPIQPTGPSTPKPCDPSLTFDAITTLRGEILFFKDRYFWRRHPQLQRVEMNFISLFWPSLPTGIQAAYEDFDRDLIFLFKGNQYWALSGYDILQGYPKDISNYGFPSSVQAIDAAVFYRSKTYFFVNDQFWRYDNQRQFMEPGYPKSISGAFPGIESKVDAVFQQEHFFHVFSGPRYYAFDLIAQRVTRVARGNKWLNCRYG

On to `O=C(NO)[C@H]1CN(C(=O)N2CCOCC2)CCN1S(=O)(=O)c1cc(F)c(Oc2ccc(Cl)cc2)c(F)c1` [Entry 30], for which the half-maximal inhibitory concentration (IC50) in assay [1] is under 50 nM; in assay [2], 50 to 1000 nM; in assay [3], 1 to 20 µM; in assay [4], under 50 nM; in assay [5], 50 to 1000 nM; in assay [6] it was under 50 nM. In addition, the half-inhibitory concentration (IC50) in assay [7] is 50 to 1000 nM; in assay [8] it was under 50 nM.

The IC50 is the concentration that gives 50% inhibition. Lower therefore signals greater potency in that assay.
